Like-named read-outs stand apart in the source and are kept apart here.
Tests used:
UGT1A7 = molecular target: T1, UGT1A7 (Homo sapiens, UniProt Q9HAW7); assay: UGT1A7-catalyzed glucuronidation, enzyme kinetics; assay type: in vitro ADME; settings: for V max ± S.E.: No BSA, expression level-normalized
T1 construct: His-tag; made in house; host or cells: baculovirus-infected insect cells (Sf9)
T1 sequence (Q9HAW7 26-530): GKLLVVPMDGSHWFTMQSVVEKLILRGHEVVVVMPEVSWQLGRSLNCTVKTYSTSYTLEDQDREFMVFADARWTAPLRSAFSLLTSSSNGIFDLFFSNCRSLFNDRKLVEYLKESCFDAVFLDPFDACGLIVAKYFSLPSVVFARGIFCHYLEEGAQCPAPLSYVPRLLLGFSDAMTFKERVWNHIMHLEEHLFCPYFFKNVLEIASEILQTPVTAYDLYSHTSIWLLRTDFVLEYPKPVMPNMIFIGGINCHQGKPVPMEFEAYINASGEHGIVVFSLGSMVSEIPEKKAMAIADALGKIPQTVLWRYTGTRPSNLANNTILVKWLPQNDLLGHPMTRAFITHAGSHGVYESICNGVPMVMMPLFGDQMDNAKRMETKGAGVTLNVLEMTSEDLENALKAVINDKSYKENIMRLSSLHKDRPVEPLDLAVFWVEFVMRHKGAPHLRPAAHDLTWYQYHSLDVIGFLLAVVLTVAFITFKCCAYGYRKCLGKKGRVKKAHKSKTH
Protocol: (§1) Protein concentrations were determined by the BCA method (Pierce Biotechnology, Rockford, IL, USA).
(§2) The protein concentrations and incubation times for the enzyme kinetic assays were selected based on preliminary assays in order to ensure that the product formation was within the linear range with respect to both protein concentration and time, and that the substrate consumption during the reaction was less than 10%. The initial velocity measurements were performed in either duplicates or triplicates and they are presented as the average values and S.E.
The glucuronidation rates by recombinant enzymes are reported as “expression normalized” values. […] The “expression normalized” glucuronidation rates were calculated by dividing the measured glucuronidation rates with relative expression level of the each given recombinant UGT.
The enzyme kinetic parameters were obtained by fitting kinetic models to the experimental data using GraphPad Prism version 5.04 for Windows (GraphPad Software Inc., San Diego, CA, USA).

BSA [1] = molecular target: T2, BSA (Bos taurus, UniProt P02769); design: purchased Sigma-Aldrich (St. Louis, MO, USA); settings: 1% BSA; cited from earlier work
T2 sequence (P02769 25-607): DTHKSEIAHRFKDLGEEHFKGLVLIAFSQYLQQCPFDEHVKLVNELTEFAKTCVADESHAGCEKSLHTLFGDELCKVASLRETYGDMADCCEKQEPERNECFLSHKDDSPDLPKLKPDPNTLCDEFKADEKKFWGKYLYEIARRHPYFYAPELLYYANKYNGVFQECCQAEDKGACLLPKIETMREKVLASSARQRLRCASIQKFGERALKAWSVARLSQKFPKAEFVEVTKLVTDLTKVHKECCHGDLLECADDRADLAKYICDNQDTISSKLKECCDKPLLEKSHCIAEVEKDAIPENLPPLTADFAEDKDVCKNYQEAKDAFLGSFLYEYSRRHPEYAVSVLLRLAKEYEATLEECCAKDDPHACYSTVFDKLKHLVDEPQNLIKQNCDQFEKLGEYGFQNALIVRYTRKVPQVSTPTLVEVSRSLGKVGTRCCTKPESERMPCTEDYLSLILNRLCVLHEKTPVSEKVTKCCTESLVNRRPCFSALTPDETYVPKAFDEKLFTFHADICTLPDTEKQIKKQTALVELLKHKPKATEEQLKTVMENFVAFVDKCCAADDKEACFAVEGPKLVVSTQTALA

UGT1A10 = molecular target: T3, UGT1A10 (Homo sapiens, UniProt Q9HAW8); assay: UGT1A10-catalyzed glucuronidation, enzyme kinetics; assay type: in vitro ADME; settings: No BSA; expression level-normalized; estradiols: 3-glucuronide formation
T3 construct: His-tag; made in house; host or cells: baculovirus-infected insect cells (Sf9)
T3 sequence (Q9HAW8 26-530): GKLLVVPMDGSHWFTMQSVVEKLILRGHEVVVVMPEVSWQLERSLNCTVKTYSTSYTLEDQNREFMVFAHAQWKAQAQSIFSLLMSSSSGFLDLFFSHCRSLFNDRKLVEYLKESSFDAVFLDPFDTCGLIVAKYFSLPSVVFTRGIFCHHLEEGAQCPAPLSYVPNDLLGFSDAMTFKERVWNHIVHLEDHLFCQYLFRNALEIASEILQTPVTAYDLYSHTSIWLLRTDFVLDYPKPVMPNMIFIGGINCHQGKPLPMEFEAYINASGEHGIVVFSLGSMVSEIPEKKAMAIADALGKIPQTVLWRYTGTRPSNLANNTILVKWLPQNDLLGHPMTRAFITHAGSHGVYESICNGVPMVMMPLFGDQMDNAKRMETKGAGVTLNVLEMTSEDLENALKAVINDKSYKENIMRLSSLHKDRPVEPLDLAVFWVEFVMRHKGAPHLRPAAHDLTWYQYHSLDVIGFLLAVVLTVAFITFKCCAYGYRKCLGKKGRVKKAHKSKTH
Protocol: (§3) Recombinant human UGTs 1A1, 1A6, 1A7, 1A8, 1A10, 2A1, 2B4, 2B7 and 2B17 were expressed as His-tagged proteins in baculovirus-infected insect cells as described previously [14]. […] Protein concentrations were determined by the BCA method (Pierce Biotechnology, Rockford, IL, USA).
as §2
The glucuronidation rates by recombinant enzymes are reported as “expression normalized” values. The relative expression level of each recombinant UGT that was produced in our laboratory was determined using immunoblotting, as previously described [14], [19]. […] The “expression normalized” glucuronidation rates were calculated by dividing the measured glucuronidation rates with relative expression level of the each given recombinant UGT.
In assays containing BSA, the total concentrations of substrate were corrected according to the measured drug binding to BSA, under the specific conditions of each glucuronidation assay.

UGT2B7 = molecular target: T4, UGT2B7 (Homo sapiens, UniProt P16662); settings: No BSA; expression level-normalized; estradiols: 17-glucuronide formation
T4 sequence (P16662 24-529): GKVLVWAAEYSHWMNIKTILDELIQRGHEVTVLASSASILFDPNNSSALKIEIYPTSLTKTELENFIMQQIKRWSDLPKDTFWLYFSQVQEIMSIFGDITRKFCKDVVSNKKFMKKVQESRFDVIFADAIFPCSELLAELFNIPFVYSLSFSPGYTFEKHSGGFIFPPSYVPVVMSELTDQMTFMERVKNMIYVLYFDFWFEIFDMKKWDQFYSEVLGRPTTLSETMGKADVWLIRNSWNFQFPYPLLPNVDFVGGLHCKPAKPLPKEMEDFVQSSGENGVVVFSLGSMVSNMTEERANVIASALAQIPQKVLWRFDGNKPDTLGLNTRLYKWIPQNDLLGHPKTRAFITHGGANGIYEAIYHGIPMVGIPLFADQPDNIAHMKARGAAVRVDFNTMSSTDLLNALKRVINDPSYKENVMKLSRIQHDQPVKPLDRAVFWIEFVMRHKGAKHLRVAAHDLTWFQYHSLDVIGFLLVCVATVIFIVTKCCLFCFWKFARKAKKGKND
Protocol: as §1, §2
(§4) The glucuronidation rates by recombinant enzymes are reported as “expression normalized” values. […] The dot blot assays were performed in triplicate and the average value was used for normalization. […] The “expression normalized” glucuronidation rates were calculated by dividing the measured glucuronidation rates with relative expression level of the each given recombinant UGT.
(§5) In assays containing BSA, the total concentrations of substrate were corrected according to the measured drug binding to BSA, under the specific conditions of each glucuronidation assay. The statistical significance of the difference in enzyme kinetics parameters upon BSA addition was tested with extra sum-of-squares F-test (included in the GraphPad software, [20]. The initial glucuronidation rates were fitted to the following equations:

UGT2B15 = molecular target: T5, UGT2B15 (Homo sapiens, UniProt P54855)
T5 sequence (P54855 24-530): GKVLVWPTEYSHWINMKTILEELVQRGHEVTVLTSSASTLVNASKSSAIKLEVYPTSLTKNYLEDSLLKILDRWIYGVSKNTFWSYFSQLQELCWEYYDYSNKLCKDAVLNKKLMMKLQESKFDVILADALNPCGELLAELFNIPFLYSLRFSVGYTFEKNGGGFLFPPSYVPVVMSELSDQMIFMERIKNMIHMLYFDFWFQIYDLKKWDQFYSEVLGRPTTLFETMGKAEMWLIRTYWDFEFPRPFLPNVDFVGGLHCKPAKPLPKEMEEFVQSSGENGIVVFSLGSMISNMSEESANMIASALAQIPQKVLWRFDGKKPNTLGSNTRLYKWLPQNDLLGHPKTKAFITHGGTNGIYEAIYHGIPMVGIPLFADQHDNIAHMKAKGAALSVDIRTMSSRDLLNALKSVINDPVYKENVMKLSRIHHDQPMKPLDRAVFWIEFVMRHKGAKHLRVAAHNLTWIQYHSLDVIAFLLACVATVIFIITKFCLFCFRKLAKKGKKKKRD
Protocol: as §3, §2
(§6) The glucuronidation rates by recombinant enzymes are reported as “expression normalized” values. The relative expression level of each recombinant UGT that was produced in our laboratory was determined using immunoblotting, as previously described [14], [19]. The dot blot assays were performed in triplicate and the average value was used for normalization. […] The “expression normalized” glucuronidation rates were calculated by dividing the measured glucuronidation rates with relative expression level of the each given recombinant UGT.
as §5

UGT1A1 [2] = molecular target: T6, UGT1A1 (Homo sapiens, UniProt P22309); assay: UGT1A1-catalyzed glucuronidation, enzyme kinetics; settings: No BSA; expression level-normalized; estradiols: 3-glucuronide formation
T6 sequence (P22309 26-533): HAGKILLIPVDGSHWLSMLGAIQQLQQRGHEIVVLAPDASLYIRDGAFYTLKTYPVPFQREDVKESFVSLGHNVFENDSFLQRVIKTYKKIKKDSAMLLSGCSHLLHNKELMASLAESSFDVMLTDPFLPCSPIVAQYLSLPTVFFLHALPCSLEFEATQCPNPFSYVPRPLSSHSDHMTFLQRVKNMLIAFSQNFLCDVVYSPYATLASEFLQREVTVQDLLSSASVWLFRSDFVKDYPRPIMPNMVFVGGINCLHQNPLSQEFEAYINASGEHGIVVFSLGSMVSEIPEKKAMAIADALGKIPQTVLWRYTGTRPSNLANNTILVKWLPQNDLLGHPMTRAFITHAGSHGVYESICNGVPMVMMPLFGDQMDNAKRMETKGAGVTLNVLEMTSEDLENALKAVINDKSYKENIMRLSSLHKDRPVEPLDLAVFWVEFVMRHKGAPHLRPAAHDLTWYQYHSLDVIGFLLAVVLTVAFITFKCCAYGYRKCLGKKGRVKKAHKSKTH
Protocol: as §3, §2, §6, §5

UGT1A6 = molecular target: T7, UGT1A6 (Homo sapiens, UniProt P19224); assay: UGT1A6-catalyzed glucuronidation, enzyme kinetics; settings: No BSA; expression level-normalized
T7 sequence (P19224 27-532): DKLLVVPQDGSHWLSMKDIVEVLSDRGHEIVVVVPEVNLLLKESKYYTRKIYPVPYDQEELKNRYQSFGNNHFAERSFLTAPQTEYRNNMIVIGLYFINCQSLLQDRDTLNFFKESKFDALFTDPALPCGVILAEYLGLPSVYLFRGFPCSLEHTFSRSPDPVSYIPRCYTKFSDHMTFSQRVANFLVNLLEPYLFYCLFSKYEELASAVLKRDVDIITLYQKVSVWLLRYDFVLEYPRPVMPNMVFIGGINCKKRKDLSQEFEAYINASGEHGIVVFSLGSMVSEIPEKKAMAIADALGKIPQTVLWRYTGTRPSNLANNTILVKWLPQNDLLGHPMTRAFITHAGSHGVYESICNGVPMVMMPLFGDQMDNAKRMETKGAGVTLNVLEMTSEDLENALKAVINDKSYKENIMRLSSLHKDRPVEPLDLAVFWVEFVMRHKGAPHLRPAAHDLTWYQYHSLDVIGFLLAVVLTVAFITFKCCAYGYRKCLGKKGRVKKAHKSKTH
Protocol: as §3, §2, §6, §5

[3] = Drug binding to control insect cell membranes by RED; settings: 0.2 mg/mL total protein in the membrane
BSA [4] = molecular target: T2, BSA; assay: in vitro; settings: bovine
UGT2B4 = molecular target: T8, UGT2B4 (Homo sapiens, UniProt P06133); assay: UGT2B4-catalyzed glucuronidation, enzyme kinetics
T8 sequence (P06133 24-528): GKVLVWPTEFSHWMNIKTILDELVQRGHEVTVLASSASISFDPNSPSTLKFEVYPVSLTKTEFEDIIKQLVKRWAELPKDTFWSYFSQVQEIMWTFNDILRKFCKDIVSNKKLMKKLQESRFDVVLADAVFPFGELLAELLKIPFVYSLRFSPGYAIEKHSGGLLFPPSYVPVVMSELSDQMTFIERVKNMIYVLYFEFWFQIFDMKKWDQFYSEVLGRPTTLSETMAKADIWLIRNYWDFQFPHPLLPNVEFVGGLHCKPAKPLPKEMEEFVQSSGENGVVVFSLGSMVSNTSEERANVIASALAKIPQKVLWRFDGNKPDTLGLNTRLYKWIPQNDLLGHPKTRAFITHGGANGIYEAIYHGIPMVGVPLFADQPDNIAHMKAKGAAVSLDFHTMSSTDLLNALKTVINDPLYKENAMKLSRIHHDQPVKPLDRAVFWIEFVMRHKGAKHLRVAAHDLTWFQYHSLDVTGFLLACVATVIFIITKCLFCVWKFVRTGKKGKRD
Protocol: as §1, §2, §4, §5

[5] = system: UGT1A9 expressed in Sf9 insect cells; settings: darexaban glucuronidation; cited from earlier work
UGT2A1 = molecular target: T9, UGT2A1 (Homo sapiens, UniProt P0DTE4); assay: UGT2A1-catalyzed glucuronidation, enzyme kinetics; settings: 0.1% BSA vs no BSA
T9 sequence (P0DTE4 21-527): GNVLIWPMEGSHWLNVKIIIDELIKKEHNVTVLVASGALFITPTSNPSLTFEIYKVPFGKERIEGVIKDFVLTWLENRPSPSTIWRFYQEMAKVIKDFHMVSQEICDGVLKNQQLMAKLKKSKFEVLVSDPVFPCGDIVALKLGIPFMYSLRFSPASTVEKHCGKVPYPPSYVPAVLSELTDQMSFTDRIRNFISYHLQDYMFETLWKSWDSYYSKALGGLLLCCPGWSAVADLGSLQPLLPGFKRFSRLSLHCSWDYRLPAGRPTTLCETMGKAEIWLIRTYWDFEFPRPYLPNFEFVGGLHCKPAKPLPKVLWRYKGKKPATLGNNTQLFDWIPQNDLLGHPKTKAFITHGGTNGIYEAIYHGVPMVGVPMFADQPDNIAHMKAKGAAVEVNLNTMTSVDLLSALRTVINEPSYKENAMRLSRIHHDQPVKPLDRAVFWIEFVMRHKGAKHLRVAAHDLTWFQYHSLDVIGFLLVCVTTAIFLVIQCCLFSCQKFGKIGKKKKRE
Protocol: as §3, §2, §6, §5

[6] = Nonspecific binding to the RED device; settings: rapid equilibrium dialysis
UGT1A1 [7] = molecular target: T6, UGT1A1; settings: read-out: No BSA: K m or S 50 ± S.E. (95% CI)
Protocol: as §3, §2
The HPLC system consisted of an Agilent 1100 series degasser, binary pump, 100-vial autosampler, thermostated column compartment, multiple wavelengths UV detector, and fluorescence detector (Agilent Technologies, Palo Alto, CA, USA). […] The resulting chromatograms were analyzed with Agilent ChemStation software (rev. B.01.01) on Windows XP Professional. […] The resulting chromatograms were analyzed with Empower 2 software (Build 2154, Waters, Milford, MA, USA) on Windows XP Professional operating system. The limits of detection and quantification were estimated based on signal-to-noise ratios of 3 and 10, respectively. […]

For CCN(CC)C(=O)/C(C#N)=C/c1cc(O)c(O)c([N+](=O)[O-])c1 [Entacapone], the “V max ± S.E.” value (UGT1A7) is given as 0.15±0.01(0.14–0.16) nmol•min^–1•mg^–1, the “f u (unbound fraction)” value (BSA [1]) is given as less than 0.1 and the “V max ± S.E.” value (UGT1A10) is given as 0.91±0.01(0.89–0.94) nmol•min^–1•mg^–1.

With Cc1cc(=O)oc2cc(O)ccc12 [4-MU, 4-Methylumbelliferone] the “V max ± S.E.” value (UGT1A7) was 0.25±0.01(0.22–0.28) nmol•min^–1•mg^–1, the “V max ± S.E.” value (UGT1A10) was 8.0±0.3(7.3–8.7) nmol•min^–1•mg^–1 and the “V max ± S.E.” value (UGT2B7) was 0.28±0.03(0.22–0.34) nmol•min^–1•mg^–1. For the same molecule, the “V max ± S.E.” value (UGT2B15; No BSA, measured rates, not expression normalized, 17α-estradiol: 3-glucuronide formation) was 0.83±0.01(0.82–0.85) nmol•min^–1•mg^–1, the “V max ± S.E.” value (UGT1A1 [2]) was 0.11±0.004(0.11–0.12) nmol•min^–1•mg^–1 and the “V max ± S.E.” value (UGT1A6) was 5.2±0.3(4.5–6.0) nmol•min^–1•mg^–1.

For C[C@]12CC[C@@H]3c4ccc(O)cc4CC[C@H]3[C@@H]1CC[C@H]2O [17α-Estradiol, 17α-estradiol], the “V max ± S.E.” value (UGT2B15) was 0.069±0.003(0.062–0.076) nmol•min^–1•mg^–1, the “K m or S 50 ± S.E.” value (UGT2B15; 0.1% BSA, substrate concentration corrected for binding to BSA, 17α-estradiol: 3-glucuronide formation) was 5.58±0.56 ^***(4.24–6.74) µM and the “binding to control insect cell membrane” value [3] was “negligible”. The fraction unbound at 8 h (BSA [4]) was 0.49 ± 0.01, the “K m or S 50 ± S.E.” value (UGT2B4) was 1.60±0.23 ^***(1.12–2.08) µM and the “V max ± S.E.” value (UGT2B4) was 0.053±0.002(0.048–0.058) nmol•min^–1•mg^–1.

In the case of bovine serum albumin [BSA], the “V max increase on inclusion of 0.1% BSA” value (UGT1A7; 0.1% BSA vs no BSA) is listed as “up to 7 fold”, the “effect of 2% BSA instead of 0.1% BSA” value [5] is listed as “very little effect” and the “decrease of K m values on inclusion of 0.1% BSA” value (UGT2A1) is listed as “up to 20 fold”.

For Oc1ccc2cc[nH]c2c1 [6-Hydroxyindole, 6-hydroxyindole], the “nonspecific binding to the RED device” value [6] was no more than 10%, the fraction unbound at 6 h (BSA [4]) was 0.84 to 0.97 and the “V max ± S.E.” value (UGT1A6) was 7.0±0.8(5.3–8.7) nmol•min^–1•mg^–1.

Molecule 17β-estradiol has a Km (UGT1A1 [7]) of 7.84 µM.
